What was measured:
[1] = target: T1, Hepatocyte growth factor receptor (Homo sapiens, UniProt P08581); experiment: Inhibition of recombinant c-MET (unknown origin) using poly (Glu, Tyr) 4:1 as substrate after 45 mins by ELISA
[2] = target: Epidermal growth factor receptor (Homo sapiens, UniProt P00533); experiment: Inhibition of EGFR (unknown origin) by HTRF method
[3] = target: T2, Receptor-type tyrosine-protein kinase FLT3 (Homo sapiens, UniProt P36888); experiment: Inhibition of FLT3 (unknown origin) by HTRF method
T2 sequence (P36888 whole entry): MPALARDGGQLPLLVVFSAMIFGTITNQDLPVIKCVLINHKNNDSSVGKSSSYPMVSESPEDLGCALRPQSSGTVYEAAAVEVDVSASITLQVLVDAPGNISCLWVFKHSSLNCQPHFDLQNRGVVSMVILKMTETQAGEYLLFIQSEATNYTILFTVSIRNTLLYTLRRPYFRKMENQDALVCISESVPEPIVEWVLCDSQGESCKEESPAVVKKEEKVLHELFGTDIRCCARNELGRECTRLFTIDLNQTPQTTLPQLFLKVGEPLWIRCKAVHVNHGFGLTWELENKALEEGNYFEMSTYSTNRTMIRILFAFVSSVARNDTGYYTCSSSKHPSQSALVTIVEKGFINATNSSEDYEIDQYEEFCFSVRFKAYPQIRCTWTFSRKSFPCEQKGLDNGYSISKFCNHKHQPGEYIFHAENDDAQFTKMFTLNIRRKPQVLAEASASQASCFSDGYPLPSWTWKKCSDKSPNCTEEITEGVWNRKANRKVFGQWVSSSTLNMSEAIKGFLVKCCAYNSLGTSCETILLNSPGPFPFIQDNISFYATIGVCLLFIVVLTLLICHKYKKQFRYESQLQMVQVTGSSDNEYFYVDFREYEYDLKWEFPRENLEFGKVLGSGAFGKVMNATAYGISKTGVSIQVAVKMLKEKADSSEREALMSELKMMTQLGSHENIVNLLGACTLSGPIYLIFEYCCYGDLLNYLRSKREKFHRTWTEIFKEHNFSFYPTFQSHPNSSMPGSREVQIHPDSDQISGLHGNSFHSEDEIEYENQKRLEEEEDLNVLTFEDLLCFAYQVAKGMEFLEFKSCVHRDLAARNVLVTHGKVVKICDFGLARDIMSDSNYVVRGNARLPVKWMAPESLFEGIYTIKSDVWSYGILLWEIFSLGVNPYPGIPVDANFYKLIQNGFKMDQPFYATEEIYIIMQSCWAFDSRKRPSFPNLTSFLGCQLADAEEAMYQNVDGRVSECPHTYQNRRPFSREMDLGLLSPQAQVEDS

[4] = target: Mast/stem cell growth factor receptor Kit (Homo sapiens, UniProt P10721); experiment: Inhibition of KIT (unknown origin) by HTRF method
Mast/stem cell growth factor receptor Kit, sequence (P10721 whole entry): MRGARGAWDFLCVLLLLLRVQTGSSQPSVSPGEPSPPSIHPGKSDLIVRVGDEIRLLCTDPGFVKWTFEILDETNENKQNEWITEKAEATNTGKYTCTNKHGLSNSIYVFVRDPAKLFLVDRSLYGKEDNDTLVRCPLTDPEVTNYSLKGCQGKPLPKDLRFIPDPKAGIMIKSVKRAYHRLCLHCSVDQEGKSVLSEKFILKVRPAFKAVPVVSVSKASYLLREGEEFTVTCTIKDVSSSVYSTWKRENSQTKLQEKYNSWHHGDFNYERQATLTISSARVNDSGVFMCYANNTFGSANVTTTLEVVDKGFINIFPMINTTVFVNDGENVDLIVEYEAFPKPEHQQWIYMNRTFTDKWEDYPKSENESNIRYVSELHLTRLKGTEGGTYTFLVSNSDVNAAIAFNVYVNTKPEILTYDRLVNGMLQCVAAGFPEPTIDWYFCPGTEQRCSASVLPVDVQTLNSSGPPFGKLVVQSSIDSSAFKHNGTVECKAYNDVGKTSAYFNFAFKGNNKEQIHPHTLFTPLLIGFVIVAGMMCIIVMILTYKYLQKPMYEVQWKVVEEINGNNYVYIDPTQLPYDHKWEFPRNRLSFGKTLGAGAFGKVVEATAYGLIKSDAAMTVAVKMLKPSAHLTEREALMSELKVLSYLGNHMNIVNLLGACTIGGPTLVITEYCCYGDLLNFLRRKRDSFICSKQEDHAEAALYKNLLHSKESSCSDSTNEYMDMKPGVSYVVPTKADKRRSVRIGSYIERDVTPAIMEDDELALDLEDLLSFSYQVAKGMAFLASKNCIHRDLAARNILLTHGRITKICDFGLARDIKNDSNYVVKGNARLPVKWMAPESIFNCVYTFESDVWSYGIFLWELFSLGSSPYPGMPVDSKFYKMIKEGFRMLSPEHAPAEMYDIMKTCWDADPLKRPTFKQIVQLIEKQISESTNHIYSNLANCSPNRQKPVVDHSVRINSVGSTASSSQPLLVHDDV

[5] = target: Platelet-derived growth factor receptor alpha (Homo sapiens, UniProt P16234); experiment: Inhibition of PDGFRalpha (unknown origin) by HTRF method
Platelet-derived growth factor receptor alpha, sequence (P16234 whole entry): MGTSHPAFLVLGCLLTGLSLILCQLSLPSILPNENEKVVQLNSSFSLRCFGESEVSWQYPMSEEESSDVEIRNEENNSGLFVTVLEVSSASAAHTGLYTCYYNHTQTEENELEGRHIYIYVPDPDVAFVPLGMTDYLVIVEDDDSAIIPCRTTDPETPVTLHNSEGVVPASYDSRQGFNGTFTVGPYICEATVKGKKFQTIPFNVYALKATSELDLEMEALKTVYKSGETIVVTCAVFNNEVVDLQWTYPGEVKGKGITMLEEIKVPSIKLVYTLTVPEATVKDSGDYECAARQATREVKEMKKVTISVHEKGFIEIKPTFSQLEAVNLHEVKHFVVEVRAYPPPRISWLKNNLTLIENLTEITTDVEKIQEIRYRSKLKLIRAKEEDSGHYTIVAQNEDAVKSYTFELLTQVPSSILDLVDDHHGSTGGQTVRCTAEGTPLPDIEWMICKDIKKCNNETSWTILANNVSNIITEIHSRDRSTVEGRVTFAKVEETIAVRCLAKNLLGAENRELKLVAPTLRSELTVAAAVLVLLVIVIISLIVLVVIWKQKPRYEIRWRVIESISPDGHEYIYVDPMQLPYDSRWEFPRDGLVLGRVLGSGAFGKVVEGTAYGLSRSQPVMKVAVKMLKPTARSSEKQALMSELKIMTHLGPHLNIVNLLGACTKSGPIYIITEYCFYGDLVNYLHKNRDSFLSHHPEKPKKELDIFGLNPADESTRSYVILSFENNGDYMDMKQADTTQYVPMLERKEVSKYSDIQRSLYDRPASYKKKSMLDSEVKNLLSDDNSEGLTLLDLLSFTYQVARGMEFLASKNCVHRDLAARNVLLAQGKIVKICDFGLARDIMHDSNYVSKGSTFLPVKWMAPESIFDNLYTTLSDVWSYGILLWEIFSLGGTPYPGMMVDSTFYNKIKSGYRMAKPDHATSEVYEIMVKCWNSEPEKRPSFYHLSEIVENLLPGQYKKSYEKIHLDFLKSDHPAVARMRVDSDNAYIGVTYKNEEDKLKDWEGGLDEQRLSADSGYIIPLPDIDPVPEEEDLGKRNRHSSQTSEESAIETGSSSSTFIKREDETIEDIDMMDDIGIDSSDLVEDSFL

[6] = target: Proto-oncogene tyrosine-protein kinase receptor Ret (Homo sapiens, UniProt P07949); experiment: Inhibition of RET (unknown origin) by HTRF method
Proto-oncogene tyrosine-protein kinase receptor Ret, sequence (P07949 whole entry): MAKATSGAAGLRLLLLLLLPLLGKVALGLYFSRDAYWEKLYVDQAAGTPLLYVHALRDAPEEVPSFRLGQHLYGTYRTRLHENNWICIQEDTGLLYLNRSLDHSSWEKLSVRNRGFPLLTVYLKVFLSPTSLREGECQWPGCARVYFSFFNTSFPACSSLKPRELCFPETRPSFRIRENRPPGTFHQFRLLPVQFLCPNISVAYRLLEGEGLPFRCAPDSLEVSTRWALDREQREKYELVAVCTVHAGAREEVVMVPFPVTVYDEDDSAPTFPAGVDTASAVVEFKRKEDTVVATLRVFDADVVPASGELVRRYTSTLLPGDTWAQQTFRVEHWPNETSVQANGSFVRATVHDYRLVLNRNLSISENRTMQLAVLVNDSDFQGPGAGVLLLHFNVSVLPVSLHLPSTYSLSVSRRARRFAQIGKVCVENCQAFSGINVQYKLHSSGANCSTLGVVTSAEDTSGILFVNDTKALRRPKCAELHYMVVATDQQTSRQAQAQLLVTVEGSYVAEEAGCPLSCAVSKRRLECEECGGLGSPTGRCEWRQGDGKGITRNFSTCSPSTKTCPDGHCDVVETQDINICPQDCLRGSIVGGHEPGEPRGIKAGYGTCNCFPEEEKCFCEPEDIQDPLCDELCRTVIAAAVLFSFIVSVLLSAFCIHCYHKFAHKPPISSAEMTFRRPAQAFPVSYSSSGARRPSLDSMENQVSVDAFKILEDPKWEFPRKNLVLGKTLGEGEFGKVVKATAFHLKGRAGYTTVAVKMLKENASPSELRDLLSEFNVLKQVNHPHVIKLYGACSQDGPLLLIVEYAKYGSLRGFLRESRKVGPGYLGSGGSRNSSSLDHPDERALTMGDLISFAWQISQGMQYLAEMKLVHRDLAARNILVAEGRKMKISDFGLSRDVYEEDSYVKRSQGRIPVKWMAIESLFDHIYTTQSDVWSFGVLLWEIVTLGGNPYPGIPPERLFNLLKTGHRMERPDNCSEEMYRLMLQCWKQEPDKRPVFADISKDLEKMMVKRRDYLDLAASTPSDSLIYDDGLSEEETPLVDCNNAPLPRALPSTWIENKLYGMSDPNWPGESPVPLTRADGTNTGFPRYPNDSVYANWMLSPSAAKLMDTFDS

[7] = target: Vascular endothelial growth factor receptor 2 (Homo sapiens, UniProt P35968)
[8] = target: T1, Hepatocyte growth factor receptor; conditions: 0.1 mM
HepG2 = experiment: cells; conditions: Homo sapiens, HepG2, 72 h
EBC-1 = experiment: cells; conditions: Homo sapiens, EBC-1, 72 h

T1 sequence (P08581 whole entry): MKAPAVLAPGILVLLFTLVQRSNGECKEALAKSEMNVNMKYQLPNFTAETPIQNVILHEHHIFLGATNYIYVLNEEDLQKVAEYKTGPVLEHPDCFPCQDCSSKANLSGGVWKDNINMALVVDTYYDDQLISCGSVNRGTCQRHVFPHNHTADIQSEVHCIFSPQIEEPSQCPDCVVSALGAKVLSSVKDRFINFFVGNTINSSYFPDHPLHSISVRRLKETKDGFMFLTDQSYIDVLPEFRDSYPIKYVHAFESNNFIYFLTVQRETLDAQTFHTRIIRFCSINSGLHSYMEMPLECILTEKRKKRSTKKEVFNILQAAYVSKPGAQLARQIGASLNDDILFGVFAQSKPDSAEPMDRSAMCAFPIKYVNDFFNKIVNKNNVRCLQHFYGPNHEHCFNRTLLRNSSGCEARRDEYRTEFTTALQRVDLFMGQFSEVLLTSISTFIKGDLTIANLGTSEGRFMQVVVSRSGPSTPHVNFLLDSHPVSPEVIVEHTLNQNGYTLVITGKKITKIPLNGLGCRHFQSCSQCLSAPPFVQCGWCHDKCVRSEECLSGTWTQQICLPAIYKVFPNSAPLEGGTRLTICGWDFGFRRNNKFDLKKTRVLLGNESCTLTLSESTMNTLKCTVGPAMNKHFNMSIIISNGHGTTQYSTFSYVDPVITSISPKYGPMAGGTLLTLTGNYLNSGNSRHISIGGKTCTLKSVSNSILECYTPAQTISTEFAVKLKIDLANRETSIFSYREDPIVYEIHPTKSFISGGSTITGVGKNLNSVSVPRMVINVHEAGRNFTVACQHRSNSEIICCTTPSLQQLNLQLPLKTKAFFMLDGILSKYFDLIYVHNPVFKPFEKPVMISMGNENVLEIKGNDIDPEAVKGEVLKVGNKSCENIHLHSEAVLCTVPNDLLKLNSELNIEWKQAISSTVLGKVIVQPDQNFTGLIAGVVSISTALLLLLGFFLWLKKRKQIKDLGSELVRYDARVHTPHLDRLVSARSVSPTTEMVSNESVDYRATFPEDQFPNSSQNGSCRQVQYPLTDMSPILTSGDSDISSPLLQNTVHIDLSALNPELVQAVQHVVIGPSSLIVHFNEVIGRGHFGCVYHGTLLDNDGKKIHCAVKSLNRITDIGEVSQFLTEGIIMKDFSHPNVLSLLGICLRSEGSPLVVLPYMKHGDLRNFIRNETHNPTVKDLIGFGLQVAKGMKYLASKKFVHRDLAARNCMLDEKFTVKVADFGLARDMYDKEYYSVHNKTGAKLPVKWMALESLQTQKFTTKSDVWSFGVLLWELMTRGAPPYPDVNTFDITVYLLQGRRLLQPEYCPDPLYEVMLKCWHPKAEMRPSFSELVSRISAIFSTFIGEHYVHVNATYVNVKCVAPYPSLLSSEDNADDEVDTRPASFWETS

Row | SMILES | IC50 [1] [µM] | IC50 (HepG2) [µM] | IC50 (EBC-1) [µM] | further results
1 | COc1cccc2c1C(=O)c1c(O)c3c(c(O)c1C2=O)C[C@@](O)(C(=O)CO)C[C@@H]3O[C@H]1C[C@H](N)[C@H](O)[C@H](C)O1 [DOXORUBICIN] | – | 0.0987 | 0.305 | –
2 | Nc1cc(Oc2ccc(NC(=O)C3(C(=O)NCc4ccc(F)cc4)CC3)cc2F)ncn1 | > 10 | – | – | –
3 | Nc1nccc(Oc2ccc(NC(=O)C3(C(=O)NCc4ccc(F)cc4)CC3)cc2F)n1 | > 10 | – | – | –
4 | COc1cc2nccc(Oc3ccc(NC(=O)C4(C(=O)Nc5ccc(F)cc5)CC4)cc3)c2cc1OC [CABOZANTINIB] | – | – | – | IC50 [5]: > 10 µM
5 | CCOc1ccn(-c2ccc(F)cc2)c(=O)c1C(=O)Nc1ccc(Oc2ccnc(N)c2Cl)c(F)c1 [BMS-777607] | 0.012 | – | 0.162 | IC50 [5]: 0.028 µM

Second part, led by results:

Row | IC50 [1] [µM] | IC50 (HepG2) [µM] | IC50 (EBC-1) [µM] | SMILES | further results
6 | 0.017 | > 1 | 0.127 | Nc1nccc(Oc2ccc(NC(=O)C3(C(=O)Nc4ccc(F)cc4)CC3)cc2F)c1Cl | IC50 [2]: > 1 µM; IC50 [3]: 2.22 µM; IC50 [4]: 0.279 µM; IC50 [5]: 0.172 µM; IC50 [6]: 0.387 µM; IC50 [7]: 0.055 µM; inhibition [8]: 100%
7 | – | > 1 | > 1 | Nc1cc(Oc2ccc(NC(=O)C3(C(=O)Nc4ccc(Cl)cc4)CC3)cc2F)ncn1 | –
8 | – | > 1 | > 1 | Nc1nccc(Oc2ccc(NC(=O)C3(C(=O)Nc4ccc(F)cc4)CC3)cc2F)n1 | –
9 | – | > 1 | 0.967 | Nc1nccc(Oc2ccc(NC(=O)C3(C(=O)Nc4ccc(Cl)cc4)CC3)cc2F)c1Cl | –
10 | – | > 1 | > 1 | Nc1nccc(Oc2ccc(NC(=O)C3(C(=O)Nc4cccc(F)c4)CC3)cc2F)c1Cl | –
11 | > 10 | – | – | COc1ccc(NC(=O)C2(C(=O)Nc3ccc(Oc4cc(N)ncn4)c(F)c3)CC2)cc1 | –
12 | – | > 1 | > 1 | Nc1cc(Oc2ccc(NC(=O)C3(C(=O)Nc4ccc(F)cc4)CC3)cc2F)ncn1 | –
